Assay results: a melting point compilation (Tetko et al.; mined from patent text by program, amines drawn as free bases though some values may be those of a salt)

Row | SMILES | melting point
1 | NC1N=C(Cl)C=C(Cl)N1c1c([N+](=O)[O-])cc([N+](=O)[O-])cc1C(F)(F)F (stereo not given) | 170 to 173 °C
2 | C#CCOc1nc(-n2nc3ccc(Cl)cn3c2=O)c(F)cc1C#N | 207 to 209 °C
3 | CC(=O)C1=CCC2C3CCC4CC(O)CCC4(C)C3C(OC(=O)CCl)CC12C (stereo not given) | 160 to 162 °C
4 | CCOC(=O)c1cn(CC)c2c(F)c(C)c(F)cc2c1=O | 147 to 150 °C
5 | CC1(C)OC(C=Cc2ccoc2)=CC1=O | 79 to 80 °C
6 | O=S1(=O)c2cccc3c(Cl)cc(Cl)c(c23)N1CCCN1CC=C(c2ccccc2)CC1 | 126 °C
7 | CN(Cc1ccc(NC(=O)C2=Cc3cc(-c4ccc(Cl)cc4)ccc3S(=O)(=O)CC2)cc1)C1CCC(=O)CC1 | 197 to 200 °C
8 | CC/C(=N\OC(F)F)c1ccc(Cl)c2nc3n(c12)CCCN3c1c(C)nc(OC)nc1C | 199 to 200 °C
9 | CCOC(=O)/C=C(C)/C=C/C=C(\C)C1=Cc2cc(C(C)(C)C)cc(C)c2OC1 | 73 °C
10 | N#Cc1cc(Br)c2c(c1)N(C1CC1)CNS2(=O)=O | 250 to 253 °C
11 | O=C(CCC1CCC(=O)N1)Nc1ccncc1 (stereo not given) | 187 to 188 °C
12 | Cc1ccc(-c2ccc3c(c2)C=C(C(=O)Nc2ccc(CNc4ccccn4)cc2)CCO3)cc1 | 189 to 190 °C
13 | O=C1CC2(CCCC2)C1(Cl)CC(Cl)(Cl)Cl (stereo not given) | 70 to 73 °C
14 | C#CCC(=C1NCCCS1)[N+](=O)[O-] | 132 to 135 °C
15 | COc1cc2cc(CO)c(CO)c(-c3cccc(Br)n3)c2cc1OC | 107 to 108 °C
16 | CCCCCCCCCCCCCCCCCCCCC(=O)Nc1ccn(C2OC(CO)C(O)C2O)c(=O)n1 (stereo not given) | 139 to 142 °C
17 | CN(CC(=O)c1ccc(Br)cc1)C(=O)OC(C)(C)C | 87 to 90 °C
18 | COc1cccc2c1CCC(C=O)C2=O (stereo not given) | 68 to 70 °C
19 | COC(=O)C(=Cc1cccc(O)c1)NC(C)=O | 115 °C
20 | Cn1cnc2cc3[nH]c(-c4ccncc4)nc3cc21 | > 280 °C

Row | SMILES | melting point
21 | CCOC1CC2(C)C(CCC3C4CC=CC4(C)CC(N(C)C)C32)CC1O (stereo not given) | 51 to 54 °C
22 | CCn1c(C(=O)OC)c(-c2ccc(OC)c(OC)c2)c2cc(OC)c(OC)cc21 | 191 to 192 °C
23 | COc1c([N+](=O)[O-])c([N+](=O)[O-])c(OC)c2[nH]c(C(F)(F)F)nc12 | 208 to 210 °C
24 | Cc1ccc(C2=CCNCC2)nc1 | 78 to 80 °C
25 | C#CCOc1cccc(-c2nc3ncccc3[nH]2)c1OC | 262 °C
26 | c1cc(-c2ccc3c(c2)OCO3)cc(Nc2ccc3c(c2)OCCO3)n1 | 116 to 118 °C
27 | Cn1ncc2c(C(F)F)cc(Cl)nc21 | 105 °C
28 | CCOc1nc(OCC)c2cscc2n1 | 84 to 86 °C
29 | C[Si]1(CC(CN)CC(=O)O)CCCC1 (stereo not given) | 133 to 135 °C
30 | COC(=O)COc1ccc(NC(=O)OCCO)cc1 | 85.5 to 87.5 °C
31 | Nc1ncc(-c2ccc3ncc(-c4ccc(CN5CCC(C(=O)N6CCCCC6)CC5)cc4)n3n2)cc1C(F)(F)F | 263 to 266 °C
32 | CS(=O)c1nc(-c2cc(C(C)(C)C)c(O)c(C(C)(C)C)c2)c[nH]1 (stereo not given) | 106 to 108 °C
33 | Cc1nc(-c2nc(-c3ccc(F)cc3)c(-c3ccc(S(C)(=O)=O)cc3)s2)cs1 | 184 to 186 °C
34 | CSc1nc2ccc(Br)cc2o1 | 95 to 96 °C
35 | O=C(c1ccc(F)cc1)N1CCN(S(=O)(=O)c2ccc(Nc3ccnc4cc(Cl)ccc34)cc2)CC1 | 235 to 237 °C
36 | CON=C(C1=Nc2ccc(Cl)cc2C(c2ccccc2F)=NC1)[N+](=O)[O-] | 130 to 133 °C
37 | COC(=O)[C@@]1(O)C[C@@H](OC(=O)c2ccccc2)[C@@H]2OC(C)(C)O[C@@H]2C1 | 109 to 110 °C
38 | N#Cc1ccc2c(c1)CCC(CO)O2 (stereo not given) | 85 °C
39 | CC(C)C(=O)OC1C(n2ccc(=O)[nH]c2=O)OC(COC(=O)c2ccc(Cl)cc2)C1(C#C[Si](C)(C)C)OC(=O)C(C)C (stereo not given) | 160 to 161 °C

Further lines, results first:

Row | melting point | SMILES
40 | 246 to 248 °C | O=S(=O)(c1ccc(O)cc1)c1ccc(-c2ccccc2)cc1
41 | 113 to 114 °C | COc1ccc2c(c1)c(CC(=O)OCc1ccc(Cl)cc1)c(C)n2C(=O)c1ccc(Cl)cc1
42 | 79 °C | CCCCOc1ccc(-c2ncc(C(=O)OCC)c(Cl)n2)cc1
43 | 250 to 253 °C | O=C(NCCc1ccccc1Cl)c1c(Cl)ccc2nc(N3CCC(C(=O)O)CC3)ccc12
44 | 200 to 201 °C | O=C1NC(=O)C(Nc2ccc3ccccc3c2)S1 (stereo not given)
45 | 120 to 121 °C | CCOC(=O)C(C)(C)Oc1ccc(OCCn2c(=O)sc3cc(C(=O)c4ccccc4)ccc32)cc1
46 | 80 °C | CCCc1c(O)cccc1Oc1ccccc1C(=O)OC
47 | 139 to 140 °C | N#CCCNC(=O)c1cccc(-c2ccc3c(c2)N(Cc2ccc(Cl)cc2Cl)CCCC3)c1
48 | 82 to 94 °C | CC(C)=C1C(=O)N(c2ccc(Cc3ccc(N)cc3)cc2)C(=O)/C1=C(\C)c1cc(-c2ccccc2)sc1C
49 | 153 to 155 °C | CCCc1c(SCCCOc2ccc3c(=O)cc(CCC(=O)O)oc3c2CCC)ccc(C(C)=O)c1N
50 | 81 to 83 °C | O=C(Cc1ccccc1SCc1ccccc1)Nc1ccccc1
51 | 128 to 131 °C | CCOC(=O)N1C(=O)N(C(=O)OCc2ccccc2)C2(C1=O)C(=O)N(Cc1ccc(Cl)c(Cl)c1)c1ccccc12 (stereo not given)
52 | 117 to 118 °C | CC(NC(=O)c1ccc(Cl)cc1)c1cccc2ccccc12 (stereo not given)
53 | 128 to 129 °C | Cc1nn(-c2ccc(C(F)(F)F)cn2)cc1CCCOc1ccccc1CC(=O)O
54 | 158 to 162 °C | CC(C)(C)c1cc2c(c(C(C)(C)C)c1)OC(=O)C2c1ccc(OCC(=O)O)cc1 (stereo not given)
55 | 298 to 300 °C | Cc1c(C=CCO)[nH]c(=O)c2c1ccc1nc(Nc3c(Cl)cccc3Cl)n(C)c12

Row | melting point | SMILES
56 | 130 °C | CCOP(=O)(OCC)c1ccc2c(c1)[C@@H](n1ccccc1=O)[C@H](O)C(C)(C)O2 (relative stereo)
57 | 61 °C | CC(NC(=O)C(CS)C(C)c1ccc(F)c(F)c1)C(=O)O (stereo not given)
58 | 170 to 171 °C | COC(=O)C=Cc1cnc(Cl)cc1NCc1ccc(OC)c(Cl)c1
59 | 307 to 308 °C | Cn1c(CN2C(=O)c3ccccc3C2=O)c(-c2ccc(O)cc2)c2cc(Cl)ccc2c1=O
60 | 172 to 174 °C | CCNC(=O)c1nc(-c2ccccc2)c(-c2ccc(=O)n(C(C)C)n2)s1
61 | 47.5 to 48 °C | O=C(Cc1ccc(Br)cc1)OCc1ccccc1
62 | 118 to 122 °C | COc1ccc(C(=O)c2ccoc2)c(Cl)c1Cl
63 | 163 to 164 °C | O=C(CCN1C(=O)c2ccccc2C1=O)c1ccc(Cl)cc1C(=O)c1ccccc1
64 | 161 to 163 °C | C=C(C)CN1C(=O)c2cscc2Nc2ccccc21
65 | 174 to 176 °C | CCOC(=O)c1cc(CC)sc1Nc1ccc([N+](=O)[O-])cc1N
66 | 99 to 102 °C | COc1cc(Cl)cc2c1OC(COS(=O)(=O)c1ccc(C)cc1)C2 (stereo not given)
67 | 135 °C | CC[C@@H](CN1CCCc2cc(Br)ccc21)NS(=O)(=O)c1c(C)cc(C)cc1C
68 | 96 to 98 °C | OCCc1coc(-c2ccc3ccccc3c2)n1
69 | 115 to 119 °C | C[C@@H](NC(=O)c1c(N)cc(Cl)cc1Cl)c1ccccc1
70 | 129 to 131 °C | CCOC(=O)Cn1c(C(=O)NCc2nnc(C)n2-c2sc(CC)cc2C(=O)c2ccccc2)cc2ccccc21
